Measured values reported in patent US7763624B2, “Substituted pyrazolo[3,4-d]pyrimidines as ACK-1 and LCK inhibitors” (Amgen Inc., priority 2005, dated 2010).

Key:
ACK1 = biological target: T1, ACK1 (Homo sapiens, UniProt Q07912); assay: ACK1 Enzymatic Assay (PGT/autophosphorylation ELISA); assay type: biochemical
T1 construct: a fusion of an N-terminal (His)6 Tag with amino acids 117 to 489 of ACK1; (His)6 (N); made in house; host or cells: baculovirus infected Hi-5 insect cells
Procedure: IC50 values of compounds of the invention may be assessed as follows. The ACK1 kinase assay utilizes a protein expressed in baculovirus infected Hi-5 cells (a fusion of an N-terminal (His)6 Tag with amino acids 117 to 489 of ACK1) purified by affinity chromatography on a Ni-NTA column. The substrate for the reaction is ACK1 itself (autophosphorylation) and poly-Glutamic acid-Tyrosine (PGT (4:1), Sigma catalog #PO275). The PGT is coated to Nunc 96 well plates at 80 μg/mL overnight at 4° C. The morning after coating, the plates are washed twice, and […] reaction buffer (10 mM Hepes, pH 7.6; 20 mM MgCl2; 75 mM NaCl, 0.125% TWEEN20 (polyoxyethylene sorbitan monolaurate); 1 mM DTT) with 5 μM ATP are added to each well. Test compounds are added in […] DMSO, and the reaction is started by addition of […] kinase in assay buffer. The reaction proceeds for 2 h at room temperature. Next, the plates are washed four times, and the level of tyrosine phosphorylation in a given well is quantified by standard ELISA assay utilizing a phosphotyrosine antibody (PY20, Pierce).

C8 cells = assay: ACK1 Cell Based Assay (survival under low serum, Cytotox One); conditions: ACK1-dependent C8 cells, 0.125% FCS, 20 to 24 h; read-out: ACK1 Cell-based IC50
Procedure: ACK1 Cell Based Assay The ACK1 cell based assay is designed to find inhibitors of ACK1 kinase activity which would be prime candidates for the development of anticancer drugs. […] After 20 to 24 h incubation at 37° C. and 5% CO2, cell viability is determined using the Cytotox One kit (Promega) according to the manufacturer's instructions.

LCK = biological target: T2, LCK (Homo sapiens, UniProt P06239); assay: LCK-Homogeneous Time Resolved Fluorescent (HTRF) Kinase Assay; assay type: biochemical
T2 construct: 15 μL of LCK KD GST (225-509) for a final volume of 40 μL; GST
T2 sequence (P06239 225-509): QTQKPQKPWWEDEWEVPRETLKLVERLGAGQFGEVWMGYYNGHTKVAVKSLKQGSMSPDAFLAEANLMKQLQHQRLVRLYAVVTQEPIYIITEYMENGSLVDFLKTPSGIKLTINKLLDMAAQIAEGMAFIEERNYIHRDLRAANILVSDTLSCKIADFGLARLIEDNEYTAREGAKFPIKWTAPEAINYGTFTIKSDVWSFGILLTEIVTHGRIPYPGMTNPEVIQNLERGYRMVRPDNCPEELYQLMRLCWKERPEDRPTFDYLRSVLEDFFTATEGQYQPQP
Procedure: LCK-Homogeneous Time Resolved Fluorescent (HTRF) Kinase Assay
The LCK HTRF assay begins with LCK in the presence of ATP phosphorylating the biotinylated peptide Gastrin. The reaction incubates for 90 min. To quench the assay detection reagents are added which both stop the reaction by diluting out the enzyme and chelating the metals due to the presence of EDTA. Once the detection reagents are added the assay incubates for 30 min to allow for equilibration of the detection reagents.
Buffer conditions are as follows: 50 mM HEPES pH 7.5, 50 mM NaCl, 20 mM MgCl2, 5 mM MnCl2, 2 mM DTT, 0.05% BSA.
The assay is quenched and stopped with 160 μL of a detection reagent. Detection reagents are as follows: Buffer made of 50 mM Tris, pH 7.5, 100 mM NaCl, 3 mM EDTA, 0.05% BSA, 0.1% Tween20.
The assay plate is read in either a Discovery or a RubyStar.

T1 sequence (Q07912 117-489): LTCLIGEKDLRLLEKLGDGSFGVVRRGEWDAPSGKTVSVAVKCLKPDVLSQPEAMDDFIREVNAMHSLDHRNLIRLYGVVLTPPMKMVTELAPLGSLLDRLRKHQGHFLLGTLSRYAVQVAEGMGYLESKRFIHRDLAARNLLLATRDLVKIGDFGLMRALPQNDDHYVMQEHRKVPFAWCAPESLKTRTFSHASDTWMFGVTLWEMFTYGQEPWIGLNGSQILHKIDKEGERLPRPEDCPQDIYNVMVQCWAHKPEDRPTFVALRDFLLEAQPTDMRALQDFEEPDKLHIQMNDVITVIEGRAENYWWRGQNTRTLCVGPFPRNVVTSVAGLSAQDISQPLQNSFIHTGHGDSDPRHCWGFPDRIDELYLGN

Row | Structure (SMILES) | Ki (ACK1) [nM] | IC50 (C8 cells) [nM] | Ki (LCK) [nM]
1 | Cc1cccc(C)c1Nc1nn(CCCN2CCCCC2)c2nc(Nc3ccc(N4CCNCC4)cc3)ncc12 [Compound 49, N^3-(2,6-Dimethyl-phenyl)-N^6-(4-piperazin-1-yl-phenyl)-1-(3-piperidin-1-yl-propyl)-1H-pyrazolo[3,4-d]pyrimidine-3,6-diamine] | 10 to 100 | > 100 | < 10
2 | Cc1cccc(C)c1Nc1nn(CC2CCOCC2)c2nc(Nc3ccc(OCCCN4CCCCC4)c(F)c3)ncc12 [Compound 62] | < 10 | 10 to 100 | < 10
